Experiments:
[1] = tested on: human NRAS mutant melanoma cell lines; experiment: 72 hours drug combination, cell density by IncuCyte, synergy by Combenefit with Loewe method; type: cell-based; settings: for synergy with MEKi (trametinib): WM1361A and WM1366 cells, 72 hours
[2] = tested on: mouse Nras mutant melanoma cell lines; experiment: as above; type: cell-based; settings: two mouse lines (1007 and 1014), 3-day treatment
Protocol: FIG. 2A: NRAS mutant melanoma cell line WM1361A, WM1366, SK-MEL-30, SK-MEL-173, 1007 and 1014 were treated for 72 hours as indicated with GSK2334470 and trametinib and analyzed for cell density by IncuCyte. Synergy graphs were generated utilizing Combenefit Software with Loewe method. Data are represented as the mean from three biological independent experiments. FIG. 2B: WM1361A, WM1366, SK-MEL-30 or SK-MEL-173 cells were treated with GSK2334470 (PDPK1i) and trametinib (tram) alone or in combination (comb) at the indicated concentrations for 7 days. Cell growth was monitored by IncuCyte every 2 hours. Media were replaced twice with drugs during culture. Data are represented as the mean±SEM of three biological independent experiments. p values were calculated with an unpaired two-tailed t test. n.s., not significant.
To further analyze synergistic effects, the growth response of a panel of several NRAS mutant cells to titrated PDPK1i (GSK2334470) and MEKi (trametinib) combinations was assessed.
Human WM1361A and WM1366 melanoma cell lines were cultured in MCDB153 (Sigma) with 2% FBS, 20% Leibowitz L-15 medium, and 5 μg/mL insulin (WM medium). […] Cell lines were STR analyzed, confirmed for NRAS/Nras mutation, and tested to be mycoplasma-free during experiments. For cell proliferation and drug response, cells were monitored by IncuCyte® (Essen Bioscience, Ann Arbor, MI) every 2 hours.

[3] = tested on: WM1361A-iCas9 #1 cells; experiment: Growth inhibition by single agents or combined inhibitors for 3 days, Bliss independence model; type: cell-based, human
Protocol: FIGS. 1A-1H: CRISPR screen identifies PDPK1, in accordance with some embodiments. FIG. 1A: Workflow of the CRISPR-Cas9 screen for genes that are essential for cell survival or act as regulators of trametinib (MEKi) sensitivity and resistance in NRAS mutant melanoma WM1361A-iCas9 #1 cells. FIGS. 1B-1D: WM1361A-iCas9 #1 cells were transduced with the Guide-it CRISPR Genome-Wide sgRNA Library. After 3 days, mCherry positive cells were determined by FACS analysis (FIG. 1). On the 24th day post infection, the cells were treated with 20 nM trametinib for further 14 days (FIG. 1C) or 0.01-0.02 nM trametinib for further 28 days (FIG. 1D). The top enriched or depleted sgRNAs targeted genes are shown. FIG. 1E, The top depleted sgRNAs targeted genes before trametinib treatment. FIG. 1F: WM1361A-iCas9 #1 cells were treated with single agents or combined inhibitors for 3 days. The growth inhibition was shown as observed inhibition (left), or was calculated as Bliss independence model (middle). The synergistic or antagonist effects (right) were calculated as Observed inhibition %−Expected inhibition %. […]
The present study further analyzed druggable essential genes with high STARS scores (>2.14 of NRAS) in WM1361A-iCas9 cells which were also identified as therapeutic targets with high priority scores (>30) in NRAS mutant melanoma SK-MEL-2 cells in a published database. […]

[4] = tested on: NRAS mutant melanoma; settings: Phase III, NRAS mutant melanoma patients; cited from earlier work

Compound: Cl.Cl.NC1(c2ccc(-c3nc4ccn5c(=O)[nH]nc5c4cc3-c3ccccc3)cc2)CCC1 [MK-2206 2HCl]
- synergy with MEKi (trametinib) [1]: reduced synergy and even antagonistic effects

Compound: COc1ccc(-c2ccc3c(N4CCOC[C@@H]4C)nc(N4CCOC[C@@H]4C)nc3n2)cc1CO [AZD8055]
- synergy with MEKi (trametinib) [1]: reduced synergy and even antagonistic effects

Compound: CNc1nc(-c2ccc3c(N)n[nH]c3c2)cc(N2C[C@@H](C(=O)NC3CCCCC3)CC[C@H]2C)n1 [GSK2334470, (3S,6R)-1-[6-(3-Amino-1H-indazol-6-yl)-2-(methylamino)-4-pyrimidinyl]-N-cyclohexyl-6-methyl-3-piperidinecarboxamide]
- synergistic inhibition of cell viability, PDPK1i (GSK2334470) and MEKi (trametinib) combinations [2]: Synergistic inhibition
- synergy with MEKi (trametinib) on growth inhibition [3]: synergistic
- synergistic inhibition of cell viability, PDPK1i (GSK2334470) and MEKi (trametinib) combinations ([1]; two Cas9-expressed cell lines and four parental human lines (WM1361A, WM1366, SK-MEL-30, SK-MEL-173), 3-day treatment): Synergistic inhibition

Compound: Cn1cnc2c(F)c(Nc3ccc(Br)cc3F)c(C(=O)NOCCO)cc21 [Binimetinib, 5-((4-bromo-2-fluorophenyl)amino)-4-fluoro-N-(2-hydroxyethoxy)-1-methyl-1H-benzo[d]imidazole-6-carboxamide]
- progression-free survival over standard chemotherapy (dacarbazine) [4]: modest advantage

Compound: Cc1nc(-c2cn3c(n2)-c2ccc(-c4cnn(C(C)(C)C(N)=O)c4)cc2OCC3)n(C(C)C)n1 [GDC-0032]
- synergy with MEKi (trametinib) [1]: synergy with trametinib comparable to those with PDPK1i
